From paper PMC4766415 (Nature Communications, 2016)
Like-named read-outs stand apart in the source and are kept apart here.

What was measured:
[1] = tested on: T1, TTR in human plasma (WT-TTR and V30M-TTR); assay: [125I]T4 competition in human plasma, native gel electrophoresis; type: binding; conditions: 1 mM; plasma from normal (WT-TTR) and V30M-TTR FAP patient; 1 h RT
T1 construct: human plasma from a normal (WT-TTR) and from an FAP patient carrying the V30M-TTR mutation; from tissue; host or cells: human plasma of normal donors and of V30M-TTR carriers
Text: Error bars indicate s.e.m. (n=3). […] Error bars indicate s.e.m. (n=3).

[2] = tested on: WT and V30M-TTR tetramers in plasma; assay: TTR tetramer stability in human plasma by IEF under semi-denaturing conditions; type: biochemical; conditions: 1.4 mM, overnight 4 °C, 4 M urea
AC16 cells = assay: TTR-induced cytotoxicity in AC16 cells, resazurin reduction assay; type: cell-based, human; conditions: 16 μM compound, 8 μM TTR; 24 h
Text: Error bars indicate s.e.m. […] Error bars indicate s.e.m. (n=4). […] Error bars indicate s.e.m. (n=3).

L55P-TTR = tested on: T2, L55P-TTR; assay: Dot-blot filter assay of L55P-TTR aggregation secreted by RN22 cells; type: cell-based, human; conditions: 1 μM in the medium
T2 construct: TTR is composed of four identical 127 amino-acid residue β-sheet-rich subunits; expressed in transfected cells; host or cells: rat Schwannoma RN22 cells, metallothionein promoter, ZnSO4 induction
Protocol: The extent of extracellular L55P-TTR aggregation was monitored by a filter trap assay followed by TTR immunodetection.
The rat Schwannoma cell line RN22 stably co-transfected with TTR L55P cDNA under the control of the metallothionein promoter was used to test the inhibitors of TTR aggregation as in ref. [51]. […] TTR in the medium was quantified by ELISA, and the volume of medium corresponding to 500 ng of TTR was applied on to a 0.2-μm pore cellulose acetate membrane filter (Schleicher and Schuell) using a manifold system (Gibco BRL) to separate soluble proteins from aggregates. […] Detection was performed with ECL (GE Healthcare). Dot blot quantification was performed using the ImageQuant program. The percentage of aggregation inhibition was calculated as 100 × ((Control—Treated)/Control). Experiments were repeated three times in triplicate.

[3] = parameters: method as in Vyndaqel European Public Assessment Report (EMA/815723/2011); conditions: single dose of 120 mg; ref Vyndaqel European Public Assessment Report (EMA/815723/2011); cited from earlier work
TTR [4] = tested on: TTR; parameters: method as in Vyndaqel European Public Assessment Report (EMA/815723/2011); conditions: single dose of 120 mg; ref Vyndaqel European Public Assessment Report (EMA/815723/2011); cited from earlier work
V122I-TTR = target: V122I-TTR; parameters: method as in PMID 23716704; conditions: subunit exchange assays; cited from earlier work
[5] = tested on: Rat Schwannoma cells (RN22); assay: Caspase-3 activation by Y78F-TTR oligomers in RN22 cells; conditions: Y78F-TTR aggregates 2 μM formed with 20 μM compound; 24 h exposure
Y78F-TTR = Y78F-TTR (Homo sapiens, UniProt P02766, Y98F); assay: Y78F-TTR aggregation inhibition, turbidity at 340 nm, pH 4.2
[6] = parameters: method as in PMID 17107884; conditions: cited from earlier work
TTR [7] = target: TTR; parameters: method as in PMID 14968122; conditions: cited from earlier work
FAP = tested on: FAP; parameters: method as in PMID 24368466; conditions: patients with FAP, 2 years treatment; cited from earlier work

Row | RA (%): percent reduction of TTR aggregation rate at high inhibitor concentration (Y78F-TTR) | SMILES | radioactive T4-TTR band in the presence of compound [1] | TTR tetramer stabilization in plasma [2] | effect on WT-TTR and V122I-TTR induced reduction in cell viability (AC16 cells) | reduction of L55P-TTR aggregation compared with untreated cells (L55P-TTR) | average concentration in plasma at Tmax [3] | average percent stabilization of TTR (TTR [4]) | Kd2 estimate (V122I-TTR) | reduction in Caspase-3 activation [5] | concentration in serum after oral administration [6] | Kd (TTR [7]; read-out: Kd1) | Kd (TTR [7]; read-out: Kd2) | effect on progression of neurological impairment (FAP)
1 | 59.57% | O=C(O)c1ccc2nc(-c3cc(Cl)cc(Cl)c3)oc2c1 [tafamidis] | no longer visible | stabilized WT and V30M-TTR tetramers in plasma | rescued this toxic effect | ~90% | 14.4 µM | 189% | in the μM range | 11.6%±4.0 |  |  |  | 
2 |  | O=C(O)c1cc(-c2ccc(F)cc2F)ccc1O [diflunisal] |  |  |  |  |  |  |  |  | > 140 µM | 75 nM | 1100 nM | reduced the rate of progression of neurological impairment
